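Test compounds were applied to cells in 96-well plates for 48 hours at 5 doses. The concentration for full growth arrest is given as TGI.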
Tests used:
Assay in all cases: NCI tumour cell line growth inhibition, 48 h
786-0 renal = tested on: 786-0 renal
A498 renal = tested on: A498 renal
A549 NSCLC = tested on: A549 NSCLC
ACHN renal = tested on: ACHN renal
CAKI-1 renal = tested on: CAKI-1 renal
CCRF-CEM leukemia = tested on: CCRF-CEM leukemia
COLO 205 colon = tested on: COLO 205 colon
DLD-1 colon = tested on: DLD-1 colon
DMS 114 small cell lung = tested on: DMS 114 small cell lung
DMS 273 small cell lung = tested on: DMS 273 small cell lung
EKVX NSCLC = tested on: EKVX NSCLC
HCC-2998 colon = tested on: HCC-2998 colon
HCT-116 colon = tested on: HCT-116 colon
HCT-15 colon = tested on: HCT-15 colon
HL-60(TB) leukemia = tested on: HL-60(TB) leukemia
HOP-18 NSCLC = tested on: HOP-18 NSCLC
HOP-62 NSCLC = tested on: HOP-62 NSCLC
HOP-92 NSCLC = tested on: HOP-92 NSCLC
HT29 colon = tested on: HT29 colon
IGROV1 ovarian = tested on: IGROV1 ovarian
K-562 leukemia = tested on: K-562 leukemia
KM12 colon = tested on: KM12 colon
KM20L2 colon = tested on: KM20L2 colon
LOX IMVI melanoma = tested on: LOX IMVI melanoma
LXFL 529 NSCLC = tested on: LXFL 529 NSCLC
M14 melanoma = tested on: M14 melanoma
M19-MEL melanoma = tested on: M19-MEL melanoma
MALME-3M melanoma = tested on: MALME-3M melanoma
MOLT-4 leukemia = tested on: MOLT-4 leukemia
NCI-H226 lung = tested on: NCI-H226 lung
NCI-H23 lung = tested on: NCI-H23 lung
NCI-H460 lung = tested on: NCI-H460 lung
NCI-H522 lung = tested on: NCI-H522 lung
OVCAR-3 ovarian = tested on: OVCAR-3 ovarian
OVCAR-4 ovarian = tested on: OVCAR-4 ovarian
OVCAR-5 ovarian = tested on: OVCAR-5 ovarian
OVCAR-8 ovarian = tested on: OVCAR-8 ovarian
RXF 393 renal = tested on: RXF 393 renal
RXF-631 renal = tested on: RXF-631 renal
SF-268 CNS = tested on: SF-268 CNS
SF-295 CNS = tested on: SF-295 CNS
SF-539 CNS = tested on: SF-539 CNS
SK-MEL-2 melanoma = tested on: SK-MEL-2 melanoma
SK-MEL-28 melanoma = tested on: SK-MEL-28 melanoma
SK-MEL-5 melanoma = tested on: SK-MEL-5 melanoma
SK-OV-3 ovarian = tested on: SK-OV-3 ovarian
SN12C renal = tested on: SN12C renal
SNB-19 CNS = tested on: SNB-19 CNS
SNB-75 CNS = tested on: SNB-75 CNS
SNB-78 CNS = tested on: SNB-78 CNS
SR leukemia = tested on: SR leukemia
SW-620 colon = tested on: SW-620 colon
TK-10 renal = tested on: TK-10 renal
U251 CNS = tested on: U251 CNS
UACC-257 melanoma = tested on: UACC-257 melanoma
UACC-62 melanoma = tested on: UACC-62 melanoma
UO-31 renal = tested on: UO-31 renal
XF 498 CNS = tested on: XF 498 CNS
RPMI-8226 leukemia = tested on: RPMI-8226 leukemia

With CN(C)NC1=C([N+](=O)[O-])C=NN(c2ccccc2)C1 the TGI (786-0 renal) was 3.24 µM, the TGI (A498 renal) was 36 µM and the TGI (A549 NSCLC) was 3.87 µM. It also gave a TGI (ACHN renal) of 3.18 µM, a TGI (CAKI-1 renal) of 3.64 µM and a TGI (CCRF-CEM leukemia) of 4.52 µM. The TGI (COLO 205 colon) was 3.27 µM, the TGI (DLD-1 colon) was 3.6 µM and the TGI (DMS 114 small cell lung) was 3.33 µM. The TGI (DMS 273 small cell lung) was 3.18 µM, the TGI (EKVX NSCLC) was 3.52 µM and the TGI (HCC-2998 colon) was 3.18 µM. For the same compound, the TGI (HCT-116 colon) was 3.26 µM, the TGI (HCT-15 colon) was 3.09 µM and the TGI (HL-60(TB) leukemia) was 4.62 µM. For the same compound, the TGI (HOP-18 NSCLC) was 3.25 µM, the TGI (HOP-62 NSCLC) was 4.33 µM and the TGI (HOP-92 NSCLC) was 3.76 µM. It also gave a TGI (HT29 colon) of 3.66 µM, a TGI (IGROV1 ovarian) of 3.9 µM and a TGI (K-562 leukemia) of 6.15 µM. It also gave a TGI (KM12 colon) of 11.9 µM, a TGI (KM20L2 colon) of 3.54 µM and a TGI (LOX IMVI melanoma) of 3.11 µM. It also gave a TGI (LXFL 529 NSCLC) of 3.03 µM, a TGI (M14 melanoma) of 3.23 µM and a TGI (M19-MEL melanoma) of 3.23 µM. For the same compound, the TGI (MALME-3M melanoma) was 3.63 µM, the TGI (MOLT-4 leukemia) was 5.05 µM and the TGI (NCI-H226 lung) was 15.1 µM. It also gave a TGI (NCI-H23 lung) of 3.42 µM, a TGI (NCI-H460 lung) of 4.1 µM and a TGI (NCI-H522 lung) of 0.343 µM. The TGI (OVCAR-3 ovarian) was 3.29 µM, the TGI (OVCAR-4 ovarian) was 3.22 µM and the TGI (OVCAR-5 ovarian) was 3.04 µM. For the same compound, the TGI (OVCAR-8 ovarian) was 4.16 µM, the TGI (RXF 393 renal) was 3.46 µM and the TGI (RXF-631 renal) was 3.33 µM. The TGI (SF-268 CNS) was 3.51 µM, the TGI (SF-295 CNS) was 3.2 µM and the TGI (SF-539 CNS) was 3.31 µM. The TGI (SK-MEL-2 melanoma) was 3.21 µM, the TGI (SK-MEL-28 melanoma) was 3.21 µM and the TGI (SK-MEL-5 melanoma) was 6.41 µM. For the same compound, the TGI (SK-OV-3 ovarian) was 3.46 µM, the TGI (SN12C renal) was 3.22 µM and the TGI (SNB-19 CNS) was 4.98 µM. The TGI (SNB-75 CNS) was 3.34 µM, the TGI (SNB-78 CNS) was 4.3 µM and the TGI (SR leukemia) was 2.51 µM. The TGI (SW-620 colon) was 3.67 µM, the TGI (TK-10 renal) was 11.8 µM and the TGI (U251 CNS) was 3.17 µM. For the same compound, the TGI (UACC-257 melanoma) was 3.57 µM, the TGI (UACC-62 melanoma) was 3.14 µM and the TGI (UO-31 renal) was 3.19 µM. The TGI (XF 498 CNS) was 3.93 µM.
With O=C(/C=C/c1ccc(Cl)c(Cl)c1)c1ccccc1Cl the TGI (786-0 renal) was 10.8 µM, the TGI (A498 renal) was 31.4 µM and the TGI (A549 NSCLC) was 31.6 µM. The TGI (ACHN renal) was 28.6 µM, the TGI (CAKI-1 renal) was 24.2 µM and the TGI (CCRF-CEM leukemia) was 19.1 µM. For the same compound, the TGI (COLO 205 colon) was 30.6 µM, the TGI (DLD-1 colon) was 10.4 µM and the TGI (DMS 114 small cell lung) was 11.2 µM. For the same compound, the TGI (DMS 273 small cell lung) was 14.5 µM, the TGI (EKVX NSCLC) was 31.4 µM and the TGI (HCC-2998 colon) was 25.6 µM. For the same compound, the TGI (HCT-116 colon) was 9.95 µM, the TGI (HCT-15 colon) was 9.97 µM and the TGI (HL-60(TB) leukemia) was 16.7 µM. The TGI (HOP-18 NSCLC) was 25.3 µM, the TGI (HOP-62 NSCLC) was 34.2 µM and the TGI (HOP-92 NSCLC) was 31.7 µM. For the same compound, the TGI (HT29 colon) was 12.8 µM, the TGI (IGROV1 ovarian) was 24.2 µM and the TGI (K-562 leukemia) was 19.4 µM. It also gave a TGI (KM12 colon) of 20.9 µM, a TGI (KM20L2 colon) of 23.7 µM and a TGI (LOX IMVI melanoma) of 27.7 µM. For the same compound, the TGI (LXFL 529 NSCLC) was 19.6 µM, the TGI (M14 melanoma) was 12.7 µM and the TGI (M19-MEL melanoma) was 17.2 µM. For the same compound, the TGI (MALME-3M melanoma) was 30.5 µM, the TGI (MOLT-4 leukemia) was 98.4 µM and the TGI (NCI-H226 lung) was 31.6 µM. The TGI (NCI-H23 lung) was 26.9 µM, the TGI (NCI-H460 lung) was 27.2 µM and the TGI (NCI-H522 lung) was 24.1 µM. It also gave a TGI (OVCAR-3 ovarian) of 23 µM, a TGI (OVCAR-4 ovarian) of 27.9 µM and a TGI (OVCAR-5 ovarian) of 30.4 µM. The TGI (OVCAR-8 ovarian) was 11.8 µM, the TGI (RPMI-8226 leukemia) was greater than 29.1 µM and the TGI (RXF 393 renal) was 31.6 µM. For the same compound, the TGI (RXF-631 renal) was 31.4 µM, the TGI (SF-268 CNS) was 13.9 µM and the TGI (SF-295 CNS) was 26.9 µM. It also gave a TGI (SF-539 CNS) of 12.2 µM, a TGI (SK-MEL-28 melanoma) of 22.5 µM and a TGI (SK-MEL-5 melanoma) of 26.7 µM. The TGI (SK-OV-3 ovarian) was 57.8 µM, the TGI (SN12C renal) was 30.8 µM and the TGI (SNB-19 CNS) was 25.1 µM. The TGI (SNB-75 CNS) was 27.5 µM, the TGI (SNB-78 CNS) was 32.3 µM and the TGI (SR leukemia) was 36.7 µM. It also gave a TGI (SW-620 colon) of 9.16 µM, a TGI (TK-10 renal) of 47.9 µM and a TGI (U251 CNS) of 10.3 µM. The TGI (UACC-257 melanoma) was 27.7 µM, the TGI (UACC-62 melanoma) was 25.5 µM and the TGI (UO-31 renal) was 27.8 µM. It also gave a TGI (XF 498 CNS) of 33.3 µM.
